Assays:
[1] = tested on: M-NFS-60 cells; test: M-NFS-60 cell proliferation assay; type: cell-based, mouse; set-up: CSF1R Cell Proliferation (M-NFS-60) IC50 (nM): scale not given here; conditions: 72 hours incubation, Alamar Blue, M-CSF-dependent cells; for IC50: Mus musculus, read-out: CSF1R Cell Proliferation (M-NFS-60) IC50
Experimental: In certain embodiments, the compounds disclosed herein are tested in an M-NFS-60 cell proliferation assay to determine their cellular potency against CSF-1R. M-NFS-60s are mouse monocytic cells that depend on the binding of the ligand M-CSF to its receptor, CSF-1R, to proliferate Inhibition of CSF-1R kinase activity will cause reduced growth and/or cell death. This assay assesses the potency of compounds as CSF-1R inhibitors by measuring the reduction of Alamar Blue reagent by viable cells. An exemplary assay is described in the Examples section.
The compounds disclosed herein were tested in an M-NFS-60 cell proliferation assay to determine their cellular potency against CSF1R. M-NFS-60s are mouse monocytic cells that depend on the binding of the ligand M-CSF to its receptor, CSF1R, to proliferate Inhibition of CSF1R kinase activity will cause reduced growth and/or cell death. This assay assesses the potency of compounds as CSF1R inhibitors by measuring the reduction of Alamar Blue reagent by viable cells.
On day one of the experiment, M-NFS-60 cells were maintained in RPMI complete medium (Omega Scientific) plus 10% FBS supplemented with 20 ng/mL of M-CSF (R&D Systems). 96-well TC-treated, flat bottom plates were seeded at 10,000 cell/well at a volume of 100 μL per well. The cells were cultured overnight at 37° C. under 5% CO2.
On day two, compounds were added to the cells at 9 different concentrations, with half-log intervals alongside a control reference compound serving as a positive control. Final DMSO concentration was kept at 0.5% for a final volume of 200 μL. The compounds were allowed to incubate with the cells for 72 hours at 37° C. under 5% CO2.
On day five of the experiment, 40 μl of Alamar Blue reagent was added to each well and allowed to incubate for 3 hours. Alamar Blue fluorescence was read using SoftMax Pro software at 560 nm (excitation) and 590 nm (emission). IC50s were generated as an average of duplicates and represents the concentration of test compound that achieves 50% inhibition of cellular proliferation compared to control.

[2] = target: T1, CSF1R (human) (Homo sapiens, UniProt P07333); test: Competition binding assay, CSF1R (human) Kd
T1 construct: made in house; host or cells: T7 phage display or HEK-293 cells (alternatives, not resolved per kinase)
Experimental: The liganded beads were blocked with excess biotin and washed with blocking buffer (SeaBlock (Pierce), 1% BSA, 0.05% Tween 20, 1 mM DTT) to remove unbound ligand and to reduce non-specific binding. […] Test compounds were prepared as 100× stocks in DMSO and diluted into the aqueous environment. Kds were determined using an eleven point threefold serial dilutions. DMSO or control compounds were was added to control assays lacking a test compound. […] The kinase concentration in the eluates was measured by quantitative PCR.

[3] = target: kinase panel containing either 359 or 386 distinct kinases; test: Competition binding assay, selectivity score (S10) against a panel of kinases; conditions: compounds at 10 μM; fraction of kinases with percent of control less than 10
Experimental: Competition binding assays used herein were developed, validated and performed as described in Fabian et al., Nature Biotechnology 2005, 23, 329-336. Kinases were produced as fusions to T7 phage (See, Fabian et al. or WO04/015142) or alternatively, the kinases were expressed in HEK-293 cells and subsequently tagged with DNA for PCR detection (See, WO08/005,310). […] The liganded beads were blocked with excess biotin and washed with blocking buffer (SeaBlock (Pierce), 1% BSA, 0.05% Tween 20, 1 mM DTT) to remove unbound ligand and to reduce non-specific binding. […] Test compounds were prepared as 100× stocks in DMSO and diluted into the aqueous environment. Kds were determined using an eleven point threefold serial dilutions. DMSO or control compounds were was added to control assays lacking a test compound. Primary screen assays were performed in polypropylene 384-well plates in a final volume of 20-40 μL, while Kd determinations were performed in polystyrene 96-well plates in a final volume of […]. […] The kinase concentration in the eluates was measured by quantitative PCR.
A selectivity score (S10) is a quantitative measure of selectivity of a compound against a panel of kinases. An S10 was calculated for a compound by dividing the number of kinases found to have a percent of control (DMSO) less than 10 by the total number of distinct kinases tested (excluding mutant variants). Percent of control (POC) is calculated by subtracting the signal of the control compound
(POC=0) from the signal of the test compound and dividing the outcome by the signal of DMSO (POC=100) minus the signal of the control compound. For the compounds disclosed herein, S10 scores were obtained by testing the compounds at 10 μM concentration in a kinase panel containing either 359 or 386 distinct kinases.

T1 sequence (P07333 20-972): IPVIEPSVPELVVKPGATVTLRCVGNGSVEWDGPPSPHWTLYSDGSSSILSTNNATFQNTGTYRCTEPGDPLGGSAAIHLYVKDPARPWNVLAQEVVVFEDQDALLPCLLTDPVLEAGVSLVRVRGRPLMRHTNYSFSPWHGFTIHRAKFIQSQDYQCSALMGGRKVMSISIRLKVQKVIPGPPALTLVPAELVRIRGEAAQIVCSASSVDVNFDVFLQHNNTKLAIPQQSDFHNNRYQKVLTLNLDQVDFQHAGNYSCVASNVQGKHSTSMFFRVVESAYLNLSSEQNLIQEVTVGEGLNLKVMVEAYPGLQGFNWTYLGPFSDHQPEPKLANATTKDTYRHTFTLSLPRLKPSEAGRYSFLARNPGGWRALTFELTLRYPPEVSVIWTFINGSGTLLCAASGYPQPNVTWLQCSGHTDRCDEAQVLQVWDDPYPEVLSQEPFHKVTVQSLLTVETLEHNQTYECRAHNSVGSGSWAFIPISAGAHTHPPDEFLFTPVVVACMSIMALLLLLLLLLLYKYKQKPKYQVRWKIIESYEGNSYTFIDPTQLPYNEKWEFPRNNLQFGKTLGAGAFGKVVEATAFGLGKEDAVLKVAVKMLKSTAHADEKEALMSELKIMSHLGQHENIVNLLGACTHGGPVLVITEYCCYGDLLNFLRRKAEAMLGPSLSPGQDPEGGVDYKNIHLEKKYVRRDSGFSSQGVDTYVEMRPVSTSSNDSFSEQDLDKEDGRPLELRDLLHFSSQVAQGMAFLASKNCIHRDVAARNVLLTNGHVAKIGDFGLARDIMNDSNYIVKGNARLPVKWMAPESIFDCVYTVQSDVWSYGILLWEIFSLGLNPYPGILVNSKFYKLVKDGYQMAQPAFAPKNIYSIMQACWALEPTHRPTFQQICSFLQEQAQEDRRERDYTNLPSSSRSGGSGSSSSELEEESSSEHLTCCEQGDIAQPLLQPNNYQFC

## CCN1CC(Oc2ccc(C(=O)Nc3ccc(NC(=O)Nc4cc(C(C)(C)C)on4)cc3)nc2)C1
[1]
  IC50: 0.1 to 0.25 µM
[2]
  Kd: < 0.003 µM
[3]
  Kinase Specificity (S10): B (0.03 < B ≦ 0.05)

## CC(C)N1CC(Oc2ccc(C(=O)Nc3ccc(NC(=O)Nc4cc(C(C)(C)C)on4)cc3)nc2)C1
[1]
  IC50: ≤ 0.1 µM
[2]
  Kd: < 0.003 µM
[3]
  Kinase Specificity (S10): B (0.03 < B ≦ 0.05)

## CC(C)(C)c1cc(NC(=O)Nc2ccc(NC(=O)c3ccc(OC4CN(C5COC5)C4)cn3)cc2)no1
[1]
  IC50: ≤ 0.1 µM
[2]
  Kd: < 0.003 µM
[3]
  Kinase Specificity (S10): C (C > 0.05)

## CC(C)N1CCC(Oc2ccc(C(=O)Nc3ccc(NC(=O)Nc4cc(C(C)(C)C)on4)cc3)nc2)C1 (stereo not drawn)
[1]
  IC50: ≤ 0.1 µM
[2]
  Kd: < 0.003 µM
[3]
  Kinase Specificity (S10): B (0.03 < B ≦ 0.05)

## CCN1CCC(Oc2ccc(C(=O)Nc3ccc(NC(=O)Nc4cc(C(C)(C)C)on4)cc3)nc2)C1 (stereo not drawn)
[1]
  IC50: ≤ 0.1 µM
[2]
  Kd: < 0.003 µM
[3]
  Kinase Specificity (S10): B (0.03 < B ≦ 0.05)

## CC(C)(C)c1cc(NC(=O)Nc2ccc(NC(=O)c3ccc(OC4CCN(C5COC5)C4)cn3)cc2)no1 (stereo not drawn)
[1]
  IC50: ≤ 0.1 µM
[2]
  Kd: < 0.003 µM
[3]
  Kinase Specificity (S10): B (0.03 < B ≦ 0.05)

## CCN1CCC(Oc2ccc(C(=O)Nc3ccc(NC(=O)Nc4cc(C(C)(C)F)no4)cc3)nc2)CC1
[1]
  CSF1R Cell Proliferation (M-NFS-60) IC50 (nM): A/B
[2]
  Kd: < 0.003 µM
[3]
  Kinase Specificity (S10): A (A ≦ 0.03)

## CC(C)N1CCC(Oc2ccc(C(=O)Nc3ccc(N(C)C(=O)Nc4cc(C(C)(C)C)on4)cc3)nc2)C1 (stereo not drawn)
[1]
  IC50: 0.1 to 0.25 µM
[2]
  Kd: < 0.003 µM
[3]
  Kinase Specificity (S10): C (C > 0.05)

## CC(C)(C)c1cc(NC(=O)Nc2ccc(NC(=O)c3ccc(OC4CCN(CCS(C)(=O)=O)C4)cn3)cc2)no1 (stereo not drawn)
[1]
  IC50: ≤ 0.1 µM
[2]
  Kd: < 0.003 µM
[3]
  Kinase Specificity (S10): C (C > 0.05)

## CN(C)C(=O)CN1CCC(Oc2ccc(C(=O)Nc3ccc(NC(=O)Nc4cc(C(C)(C)C)on4)cc3)nc2)C1 (stereo not drawn)
[1]
  IC50: ≤ 0.1 µM
[2]
  Kd: < 0.003 µM
[3]
  Kinase Specificity (S10): B (0.03 < B ≦ 0.05)

## CCN1CCC(Oc2ccc(C(=O)Nc3ccc(NC(=O)Nc4cc(C(C)(C)C(F)(F)F)on4)cc3)nc2)CC1
[1]
  IC50: ≤ 0.1 µM
[2]
  Kd: < 0.003 µM
[3]
  Kinase Specificity (S10): C (C > 0.05)

## CC(C)N1CCC(Oc2ccc(C(=O)Nc3ccc(NC(=O)Nc4cc(C(C)(C)C(F)(F)F)on4)cc3)nc2)CC1
[1]
  IC50: ≤ 0.1 µM
[2]
  Kd: < 0.003 µM
[3]
  Kinase Specificity (S10): C (C > 0.05)

## CC(C)N1CC[C@@H](Oc2ccc(C(=O)Nc3ccc(NC(=O)Nc4cc(C(C)(C)C)on4)cc3)nc2)C1
[1]
  IC50: ≤ 0.1 µM
[2]
  Kd: < 0.003 µM
[3]
  Kinase Specificity (S10): C (C > 0.05)

## Cc1cc(NC(=O)Nc2cc(C(C)(C)C)on2)ccc1NC(=O)c1ccc(OC2CC(C)(C)N(C)C(C)(C)C2)cn1
[1]
  IC50: > 1 µM
[2]
  Kd: 0.003 to 0.01 µM
[3]
  Kinase Specificity (S10): C (C > 0.05)

## Cc1cc(NC(=O)c2ccc(OC3CC(C)(C)N(C)C(C)(C)C3)cn2)ccc1NC(=O)Nc1cc(C(C)(C)C)on1
[1]
  IC50: 0.1 to 0.25 µM
[2]
  Kd: < 0.003 µM
[3]
  Kinase Specificity (S10): B (0.03 < B ≦ 0.05)

## CC(C)N1CC[C@H](Oc2ccc(C(=O)Nc3ccc(NC(=O)Nc4cc(C(C)(C)C)on4)cc3)nc2)C1
[1]
  IC50: ≤ 0.1 µM
[2]
  Kd: < 0.003 µM
[3]
  Kinase Specificity (S10): C (C > 0.05)

## CN1C2CCC1CC(Oc1ccc(C(=O)Nc3ccc(NC(=O)Nc4cc(C(C)(C)C)on4)cc3)nc1)C2 (stereo not drawn)
[1]
  IC50: ≤ 0.1 µM
[2]
  Kd: < 0.003 µM
[3]
  Kinase Specificity (S10): C (C > 0.05)

## COc1cc(NC(=O)c2ccc(OC3CC(C)(C)N(C)C(C)(C)C3)cn2)ccc1NC(=O)Nc1cc(C(C)(C)C)on1
[1]
  IC50: > 1 µM
[2]
  Kd: 0.003 to 0.01 µM
[3]
  Kinase Specificity (S10): A (A ≦ 0.03)

## CN1C(C)(C)CC(Oc2ccc(C(=O)Nc3ccc(NC(=O)Nc4cc(C(C)(C)F)no4)cc3)nc2)CC1(C)C
[1]
  IC50: ≤ 0.1 µM
[2]
  Kd: < 0.003 µM
[3]
  Kinase Specificity (S10): A (A ≦ 0.03)

## CN1C(C)(C)CC(C)(Oc2ccc(C(=O)Nc3ccc(NC(=O)Nc4cc(C(C)(C)C)on4)cc3)nc2)CC1(C)C
[1]
  IC50: ≤ 0.1 µM
[2]
  Kd: < 0.003 µM
[3]
  Kinase Specificity (S10): C (C > 0.05)

## CC(C)(C)c1cc(NC(=O)Nc2ccc(NC(=O)c3ccc(OC4CN5CCC4CC5)cn3)cc2)no1 (stereo not drawn)
[1]
  IC50: ≤ 0.1 µM
[2]
  Kd: < 0.003 µM
[3]
  Kinase Specificity (S10): C (C > 0.05)

## CC(C)(C)c1cc(NC(=O)Nc2ccc(NC(=O)c3ccc(OC[C@H]4CCCN5CCCC[C@@H]45)cn3)cc2)no1
[1]
  IC50: ≤ 0.1 µM
[2]
  Kd: < 0.003 µM
[3]
  Kinase Specificity (S10): C (C > 0.05)

## CN1C(C)(C)CC(Oc2ccc(C(=O)Nc3ccc(NC(=O)Nc4cc(C(C)(C)C)nn4C)cc3)nc2)CC1(C)C
[1]
  IC50: 0.1 to 0.25 µM
[2]
  Kd: 0.003 to 0.01 µM
[3]
  Kinase Specificity (S10): B (0.03 < B ≦ 0.05)

## CN1C(C)(C)CC(Oc2ccc(C(=O)Nc3ccc(NC(=O)Nc4cc(C(F)(F)F)n(C)n4)cc3)nc2)CC1(C)C
[1]
  IC50: 0.25 to 1 µM
[2]
  Kd: < 0.003 µM
[3]
  Kinase Specificity (S10): C (C > 0.05)

## CN1C(C)(C)CC(Oc2ccc(C(=O)Nc3cccc(CNC(=O)Nc4cc(C(C)(C)C)on4)c3)nc2)CC1(C)C
[1]
  IC50: > 1 µM
[2]
  Kd: > 0.01 µM
[3]
  Kinase Specificity (S10): C (C > 0.05)

## CN1C(C)(C)CC(Oc2ccc(C(=O)Nc3ccc(NC(=O)Nc4cc(C(C)(C)C)on4)cc3)nn2)CC1(C)C
[1]
  IC50: 0.25 to 1 µM
[2]
  Kd: < 0.003 µM
[3]
  Kinase Specificity (S10): C (C > 0.05)

## CN1C(C)(C)CC(Oc2cnc(C(=O)Nc3ccc(NC(=O)Nc4cc(C(C)(C)C)on4)cc3)cn2)CC1(C)C
[1]
  IC50: 0.1 to 0.25 µM
[2]
  Kd: 0.003 to 0.01 µM
[3]
  Kinase Specificity (S10): B (0.03 < B ≦ 0.05)

From patent US9296722B2, “Azolyl urea compounds and methods of use thereof” (Ambit Biosciences Corporation, priority 2010, dated 2016)
